We go through six molecules from patent publication US8440835B2, “Environmentally sensitive fluorophores” (Massachusetts Institute of Technology, priority 2007, dated 2013).

Common to all, as to format: physicochemical
The nature of series [1]: Hydrolysis of the imide ring followed by fluorescence in PBS buffer over 24 hours. The method, then: The 4DMAP and 6DMN fluorophores are likely susceptible to the gradual hydrolysis of the imide ring system in the pH range of 7 to 8. The origin of this reactivity can be attributed to the bond angle strain of the five-membered imide ring system that is released during the ring opening process. […] This is apparent in an experiment performed on both the KR4DMAP and KR4DMN peptides using a PerkinElmer HTS7000 plate reader. Fluorescence of the two peptides was measured at their respective emission wavelengths in PBS buffer over a 24 hour period at 28° C.
The fluorophore remained intact throughout the 24 hr duration. This difference between the stability of 4DMN and that of 4DMAP is most evident at pH 8 where the rate of hydrolysis for 4DMAP is greatest (FIG. 7).

Series [2] in a line: Fluorescence spectra of the KR peptide series in dioxane vs. TBS buffer. As to conditions: for fluorescence intensity ratio (Idioxane/ITBS), in words: at the wavelength of maximum emission intensity in dioxane. How it is done: This example illustrates investigations into the biological applications of the dimethylamino phthalimide series of environment sensitive fluorophores (FIGS. 3C-3E), as compared to both dansyl and NBD. A comparative study was performed on the fluorophores of FIG. 3 by synthetically preparing a series of lysine-arginine rich peptides (KR peptide series) such that each peptide in the series contained one of the five fluorophores appended to the side-chain of the residue at position 4 in the peptide sequence (FIG. 4), SEQ ID NOs: 5-9. The fluorescence spectra of the KR peptides were then measured at 5 micromolar in both TBS buffer (pH 7.4) and dioxane (containing 5 mM 18-crown-6). These conditions were selected to determine the magnitude of the fluorescence change for each fluorophore under an ideal set of conditions. […] An advantage of this property is a much improved signal-to-noise ratio for experimental measurements made in the context of real biological systems. […] While it is often possible to optimize the maximum fluorescence output by experimenting with the placement of the selected fluorophore on the protein of interest, the intrinsic fluorescence of the fluorophore in aqueous environments is often a limiting factor when optimizing the fluorescent response.

The nature of series [3]: Resistance of the 4DMN side chain to solid-phase peptide synthesis conditions. As to conditions: 0.12 M diisopropylethylamine; 20% piperidine; 95% TFA. The method, then: The peptide synthesis was carried out using standard Fmoc-based solid phase peptide synthesis (SPPS) protocols on a 0.05 to 0.1 mmol scale using a 0.21 mmol/g loading PAL-PEG-PS solid support. Amino acids were coupled in three-fold excess using a mixture of 0.2 M HBTU/0.2 M HOBt in DMF as activating agents. Each amino acid was activated for two minutes with the HBTU/HOBt mixture (1 eq.) and diisopropylethylamine (DIPEA), 0.195 M in DMF (1.5 eq.) before being added to the resin. Peptide coupling was monitored using the 2,4,6-trinitrobenzenesulphonic acid (TNBS) test. Amino acids were used as protected Fmoc-amino acids with the standard side chain protecting groups. High-performance liquid chromatography (HPLC) was performed using a Waters 600E HPLC fitted with a Waters 600 automated control module and a Waters 2487 dual wavelength absorbance detector recording at 228 and 280 nm. For analytical HPLC, a Beckman Ultrasphere C18, 5 micrometer, 4.6×150 mm reverse-phase column was used. For preparative separations, a YMC-pack, C18, 250×20 mm reversed phase column was used. The standard gradient for analytical and preparative HPLC used was 93:7 to 5:95 over 35 minutes (water:acetonitrile, 0.1% TFA).

A short description of series [4]: Exposure to standard Fmoc deprotection protocol (20% 4-methylpiperidine in DMF) on solid support, analysis by MALDI-MS, HPLC, ESI-MS. How it is done: This example illustrates the incorporation of 4DMAP and 6DMN into peptides by coupling an anhydride precursor of either fluorophore to a free amine on a fully synthesized peptide in the last step prior to cleaving the peptide from the solid support. […] This is evident in the experiment shown in FIG. 9 where the KR peptides of 4DMN and 6DMN were both exposed to a standard Fmoc deprotection protocol while still on solid support. Roughly 20 mg of resin for each peptide was transferred to a small 2 mL spin tube and treated at room temperature with a solution of 20% 4-methylpiperidine in DMF (3×5 min). The peptides were then cleaved from the resin and analyzed by MALDI-MS, HPLC, and ESI-MS.
The masses of these two peaks determined by ESI-MS were identical and confirmed to be that of the 4-methylpiperidine adduct. It is believed that the occurrence of the two byproduct peaks, instead of one, is due to varying retention times for the two possible isomers formed depending on which of the imide carbonyls are attacked by the base. […] The HPLC and ESI-MS analysis also confirmed that no reaction occurred. The 4DMNA amino acid appears to be unreactive under these conditions. Furthermore, it is worth emphasizing that the 4DMN chromophore was exposed to this same treatment twice previously during the preparation of the KR4DMN peptide using the 4DMNA Fmoc building-block.

As for `CN(C)c1ccc2c(c1)C(=O)NC2=O` [4DMAP, 4-dimethylamino phthalimide, reference compound], the rate of hydrolysis result in series [1] (pH 8, PBS buffer, 28° C.) is given as “significantly enhanced”. For the same molecule, in series [2], the “fluorescence intensity ratio (Idioxane/ITBS), in words” value was “greater than three orders of magnitude”.

As for `CN(C)c1ccc2c3c(cccc13)C(=O)NC2=O` [4DMN, 4-N,N-dimethylamino-1,8-naphthalimide], the “resistance to peptide synthesis conditions” value in series [3] is reported as “resistant”. Besides, the “hydrolysis of the imide ring system” value in series [1] (pH range of 7 to 8) was “no such reactivity”. In series [2], the “fluorescence intensity ratio (Idioxane/ITBS), in words” value is on record as “greater than three orders of magnitude”.

Regarding `CN(C)c1ccc2c3c(cccc13)C(=O)N(CC(N)C(=O)O)C2=O` (stereo not drawn) [4DMNA], the “formation of 4-methylpiperidine adduct” value in series [4] (20% 4-methylpiperidine in DMF, 3×5 min, room temperature, on resin) was “unreactive”.

Take `CN(C)c1ccc2cc3c(cc2c1)C(=O)NC3=O` [6DMN, 6-N,N-dimethylamino-2,3-naphthalimide]: the “fluorescence intensity ratio (Idioxane/ITBS), in words” value in series [2] is listed as “greater than three orders of magnitude”.

As to `CN(C)c1ccc2c3c(cccc13)C(=O)N(CC(NC(=O)OCC1c3ccccc3-c3ccccc31)C(=O)O)C2=O` (stereo not drawn) [Fmoc-4DMNA, N-α-Fmoc-(4-N,N-dimethylamino-1,8-naphthalimido) alanine], the “susceptibility to nucleophilic attack by bases like 4-methylpiperidine” value in series [4] (use in preparation of various peptides) is recorded as “no susceptibility”.

Consider dansyl, for which the λexc result in series [2] (KR peptide series) was “below 350 nm”.
